Test results as given in ChEMBL document CHEMBL5042479, “Synthesis and Characterization of New V1A Antagonist Compounds: The Separation of Four Atropisomeric Stereoisomers” (J Med Chem, 2021).
Converted amounts (≈) assume the structure as drawn. Values belong to the molecule of their own block, whether it stands above or below them.

Experiments:
Vasopressin V2 receptor [1] = molecular target: T1, Vasopressin V2 receptor (Homo sapiens, UniProt P30518); test: Displacement of [3H]-labelled arginine-vasopressin from human V2 receptor expressed in human 1321N1 cell membranes at 1 uM incubated for 60 mins by radioligand binding assay; conditions: Membrane
T1 sequence (P30518 whole entry): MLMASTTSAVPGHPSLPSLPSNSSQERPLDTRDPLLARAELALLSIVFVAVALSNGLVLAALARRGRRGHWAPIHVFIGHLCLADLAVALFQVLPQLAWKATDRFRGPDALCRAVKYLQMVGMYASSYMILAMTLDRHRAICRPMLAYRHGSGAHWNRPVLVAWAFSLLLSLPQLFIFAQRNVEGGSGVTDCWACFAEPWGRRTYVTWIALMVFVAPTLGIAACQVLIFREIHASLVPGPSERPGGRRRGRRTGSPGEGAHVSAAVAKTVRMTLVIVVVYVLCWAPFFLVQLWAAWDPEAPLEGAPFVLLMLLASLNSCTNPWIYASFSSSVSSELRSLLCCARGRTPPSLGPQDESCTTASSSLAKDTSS

Vasopressin V2 receptor [2] = molecular target: T1, Vasopressin V2 receptor; test: Displacement of [3H]-arginine-vasopressin from human V2 receptor expressed in human 1321N1 cell membranes incubated for 60 mins by radioligand binding assay; parameters: species or system Membrane
[3] = Intrinsic clearance in rat liver microsomes in presence of reduced NADPH
[4] = Apparent permeability across apical to basolateral side in mouse Caco-2 cells; conditions: human
[5] = Permeability directional ratio in mouse Caco-2 cells; conditions: human
[6] = Intrinsic clearance in human liver microsomes in presence of reduced NADPH
physchem = conditions: PBS, pH 7.4
Description: Kinetic solubility of compound in PBS at pH 7.4 incubated for 2 hrs by HPLC-MS analysis

[7] = Intrinsic clearance in mouse liver microsomes in presence of reduced NADPH
1321N1 = test: Selectivity ratio of Ki for human V2 receptor expressed in human 1321N1 cell membranes to Ki for human V1A receptor expressed in human 1321N1 cell membranes; type: cell-based
Vasopressin V1a receptor [8] = molecular target: T2, Vasopressin V1a receptor (Homo sapiens, UniProt P37288); test: Displacement of [3H]-arginine-vasopressin from human V1A receptor expressed in human 1321N1 cell membranes incubated for 60 mins by radioligand binding assay; parameters: species or system Membrane
Target sequence in this assay (P37288 whole entry): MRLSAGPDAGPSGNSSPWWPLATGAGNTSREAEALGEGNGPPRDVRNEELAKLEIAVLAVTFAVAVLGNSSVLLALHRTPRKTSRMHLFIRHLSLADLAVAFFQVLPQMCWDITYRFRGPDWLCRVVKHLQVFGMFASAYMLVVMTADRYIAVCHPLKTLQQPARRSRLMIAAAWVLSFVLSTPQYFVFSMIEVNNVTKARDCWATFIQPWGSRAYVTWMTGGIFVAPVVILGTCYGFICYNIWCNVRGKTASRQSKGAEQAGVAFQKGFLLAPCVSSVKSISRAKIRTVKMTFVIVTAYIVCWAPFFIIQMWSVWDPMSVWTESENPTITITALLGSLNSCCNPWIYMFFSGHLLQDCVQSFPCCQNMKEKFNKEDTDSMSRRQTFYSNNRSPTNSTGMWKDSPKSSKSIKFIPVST

Vasopressin V1a receptor [9] = molecular target: T2, Vasopressin V1a receptor; test: Displacement of [3H]-labelled arginine-vasopressin from human V1A receptor expressed in human 1321N1 cell membranes at 5 nM incubated for 60 mins by radioligand binding assay; conditions: Membrane
Target sequence in this assay (P37288 whole entry, looked up): as the sequence (P37288 whole entry) above

Vasopressin V1a receptor [10] = molecular target: T2, Vasopressin V1a receptor; test: Inhibition of human V1A receptor expressed in human 1321N1 cells assessed as calcium mobilization by fluorescent plate reader; type: functional, cell-based
Target sequence in this assay (P37288 whole entry): as above

Compound: Cc1cccc2c1-n1c(nnc1[C@H]1CC[C@H](Oc3ccccn3)CC1)C[C@@H](O)C2 (atropisomer aS) [listing 1 of 2 here]
inhibition (Vasopressin V2 receptor [1]): 0%

Compound: Cc1cccc2c1-n1c(nnc1[C@H]1CC[C@H](Oc3ccccn3)CC1)C[C@H](O)C2 (atropisomer aS) [listing 1 of 2 here]
inhibition (Vasopressin V2 receptor [1]): -5%

Compound: CN1Cc2cc(Cl)ccc2-n2c(nnc2C2CCN(c3ccccn3)CC2)C1
inhibition (Vasopressin V2 receptor [1]): 13%

Compound: Cc1cccc2c1-n1c(nnc1[C@H]1CC[C@H](Oc3ccccn3)CC1)C[C@@H](O)C2 (atropisomer aR) [listing 1 of 2 here]
inhibition (Vasopressin V2 receptor [1]): -6%

Compound: Cc1cccc2c1-n1c(nnc1[C@H]1CC[C@H](Oc3ccccn3)CC1)C[C@H](O)C2 (atropisomer aR) [listing 1 of 2 here]
inhibition (Vasopressin V2 receptor [1]): -3%

Compound: Cc1cccc2c1-n1c(nnc1[C@H]1CC[C@H](Oc3ccccn3)CC1)C[C@@H](O)C2 (atropisomer aR) [listing 2 of 2 here]
Ki (Vasopressin V1a receptor [8]): 0.0063 µM

Compound: Cc1cccc2c1CC(O)Cc1nnc([C@H]3CC[C@H](Oc4ccccn4)CC3)n1-2 (stereo partly specified)
Ki (Vasopressin V1a receptor [8]): 0.0088 µM
inhibition (Vasopressin V2 receptor [1]): -9%

Compound: Cc1cccc2c1-n1c(nnc1[C@H]1CC[C@H](Oc3ccccn3)CC1)C[C@H](O)C2 (atropisomer aS) [listing 2 of 2 here]
Ki (Vasopressin V1a receptor [8]): 0.146 µM

Compound: CN(C)CCn1cc(C(=O)N2CCC3(CC2)OCc2ccccc23)c2ccc(Cl)cc21
inhibition (Vasopressin V2 receptor [1]): -6%

Compound: Cc1cccc2c1-n1c(nnc1[C@H]1CC[C@H](Oc3ccccn3)CC1)C[C@@H](O)C2 (atropisomer aS) [listing 2 of 2 here]
Ki (Vasopressin V1a receptor [8]): 2.64 µM

Compound: Cc1cccc2c1-n1c(nnc1[C@H]1CC[C@H](Oc3ccccn3)CC1)C[C@H](O)C2 (atropisomer aR) [listing 2 of 2 here]
Ki (Vasopressin V1a receptor [8]): 0.011 µM

Now from value to molecule, other results behind:

Ki (Vasopressin V2 receptor [2]): 0.9 µM
microsomal CLint [3]: 56.2 µL/min/mg
Papp A→B [4]: 20.5 ×10⁻⁶ cm/s
efflux ratio [5]: 4.7
microsomal CLint [6]: 4.1 µL/min/mg
solubility kinetic at 2 h (physchem): 98.9 µM (≈ 40.6 µg/mL)
microsomal CLint [7]: 6.7 µL/min/mg
Compound: O[C@H]1Cc2cc(Cl)ccc2-n2c(nnc2[C@H]2CC[C@H](Oc3ccccn3)CC2)C1
Selectivity ratio (1321N1): 3000

microsomal CLint [3]: 38 µL/min/mg
Papp A→B [4]: 20.3 ×10⁻⁶ cm/s
efflux ratio [5]: 6.2
microsomal CLint [6]: 0.4 µL/min/mg
solubility kinetic at 2 h (physchem): 97.5 µM (≈ 40.1 µg/mL)
microsomal CLint [7]: 6.3 µL/min/mg
Compound: OC1Cc2cc(Cl)ccc2-n2c(nnc2[C@H]2CC[C@H](Oc3ccccn3)CC2)C1 (stereo partly specified)
Selectivity ratio (1321N1): 1570

Ki (Vasopressin V1a receptor [8]): 0.012 µM
Compound: OC1Cc2c(Cl)cccc2-n2c(nnc2[C@H]2CC[C@H](Oc3ccccn3)CC2)C1 (stereo partly specified)

inhibition (Vasopressin V1a receptor [9]): 26%
Compound: OC1Cc2ccc(Cl)cc2-n2c(nnc2[C@H]2CC[C@H](Oc3ccccn3)CC2)C1 (stereo partly specified)

Ki (Vasopressin V2 receptor [2]): 1.07 µM
Ki (Vasopressin V1a receptor [8]): 0.0004 µM
IC50 (Vasopressin V1a receptor [10]): 0.0019 µM
Compound: Cc1ccc2c(c1)CC(O)Cc1nnc([C@H]3CC[C@H](Oc4ccccn4)CC3)n1-2 (stereo partly specified)

CLH [3]: 124 µL/min/mg
CLH [6]: 7 µL/min/mg
CLH [7]: 94 µL/min/mg
Compound: Clc1ccc2c(c1)CCCc1nnc([C@H]3CC[C@H](Oc4ccccn4)CC3)n1-2

Ki (Vasopressin V2 receptor [2]): 0.2 µM
microsomal CLint [3]: 16.6 µL/min/mg
Papp A→B [4]: 22.5 ×10⁻⁶ cm/s
efflux ratio [5]: 3.7
microsomal CLint [6]: 3.2 µL/min/mg
solubility kinetic at 2 h (physchem): 95.1 µM (≈ 39.1 µg/mL)
microsomal CLint [7]: 5.1 µL/min/mg
Compound: O[C@@H]1Cc2cc(Cl)ccc2-n2c(nnc2[C@H]2CC[C@H](Oc3ccccn3)CC2)C1
Selectivity ratio (1321N1): 667

Ki (Vasopressin V1a receptor [8]): 0.034 µM
inhibition (Vasopressin V2 receptor [1]): 3%
IC50 (Vasopressin V1a receptor [10]): 0.39 µM
Compound: Cc1ccc2c(c1)-n1c(nnc1[C@H]1CC[C@H](Oc3ccccn3)CC1)CC(O)C2 (stereo partly specified)
